Values quoted from earlier work as cited in patent US20100016828A1, “Drug Delivery System and Method” (priority 1995, published 2010).

What was measured:
blood-brain barrier = details: hyperosmolar saturated solution of 25% mannitol, intra-arterial infusion for approximately 30 seconds
[1] = intrathecal administration; at 1 hour
[2] = cat brain

In the case of `OC[C@@H](O)[C@@H](O)[C@H](O)[C@H](O)CO` [mannitol], the “period of nonselective entry of substances into the CNS and tumor after blood-brain barrier disruption” value (blood-brain barrier) is listed as “approximately 30 minutes”.

For `CN(Cc1cnc2nc(N)nc(N)c2n1)c1ccc(C(=O)N[C@@H](CCC(=O)O)C(=O)O)cc1` [methotrexate], the “depth of penetration into parenchymal tissue” value [1] is listed as 3.2 mm.

For `OC[C@H]1O[C@@](CO)(O[C@H]2O[C@H](CO)[C@@H](O)[C@H](O)[C@H]2O)[C@@H](O)[C@@H]1O` [sucrose], the “distribution into gray matter” value ([2]; after interstitial infusion) is listed as “extensively distributed into gray matter by two hours” and the “spread in an anterior-posterior direction” value ([2]; two hour infusions, immediately after completion of the infusion) is listed as “≈ 2.0 cm”.

For hematoporphyrin derivative [HpD], the “HpD uptake relative to normal brain tissue” value (glioblastomas) is listed as 30 times and the “HpD uptake relative to normal tissue” value (low-grade tumors) is listed as 8 times.
